# “Also recorded” adds a separate entry of the source.
# Tests used:
# Type in all cases: in vivo, human
# [1] = Phase 1 open-label multidose pharmacokinetic study of IPE, EPA in plasma and RBCs by LC-MS/MS
# Procedure: A study to characterize the pharmacokinetics of ethyl eicosapentaenoate in plasma and red blood cells after multiple-dose administration of IPE at 2 g per day and 4 g per day was performed in healthy adult male and female humans.
# The study was a phase 1, open-label, randomized, multidose study in healthy, nonsmoking men and women aged >18 and ≦55 years with a body mass index (BMI)>18 and ≦30 kg/m^2. Exclusion criteria included use within 6 weeks prior to randomization through study end of any lipid-altering medications or supplements, including statins, niacin at levels of greater than 200 mg/day, fibrates, ezetimibe, bile acid sequestrants, omega-3 fatty acid medications, and supplements or foods enriched with omega-3 fatty acids (no more than 2 servings of fish per week were permitted).
# Following a 14-day screening period, subjects entered a 28-day treatment period and were randomized to one of four IPE dose regimen treatment groups as shown in FIG. 1. Group 1 received IPE 2 g daily (1000-mg capsules; twice-daily [BID] regimen); Group 2 received IPE 4 g daily (1000-mg capsules; BID regimen); Group 3 received IPE 2 g daily (1000-mg capsules; once-daily [QD] regimen); and Group 4 received IPE 2 g daily (500-mg capsules; BID regimen). Treatment was administered orally, with or following a meal in the morning and evening for BID regimens, or in the morning only for the QD regimen. Subjects then entered an 18-day post-treatment pharmacokinetic sampling period.
# The safety population was defined as all randomized subjects who received at least one dose of study drug. […]
# Fasting EPA concentrations were measured with a validated liquid chromatography with tandem mass spectrometry (LC-MS/MS) method in plasma and RBCs prior to the morning dose (days 1, 14, 26, 28) and at serial time points (1, 3, 5, 6, 8, 10, 12, 24, 48, 72, 120, 192, 312, and 432 hours) after the morning dose on day 28. […] In RBCs, EPA was measured in the cell membrane, where EPA is mainly incorporated in phospholipids.
# For total EPA in plasma and RBCs, lipids were isolated by acid/methanol/chloroform extraction followed by centrifugation and purified by isohexane and solid-phase extraction after confirmed complete lipid hydrolysis and transmethylation (acid/methanol, 50° C. overnight). […] Quantitation utilized linolenic acid as an internal standard and EPA as the standard for the calibration curve; for total plasma EPA, RBC EPA, and unesterified EPA, the lower limits of quantitation were 10 μg/mL, 5 μg/mL, and 50 ng/mL, respectively. EPA concentrations were measured at Charles River Laboratories Ltd (Elphinstone Research Center, Tranent, Edinburgh, Scotland, UK). […]
# [2] = Safety and tolerability in the phase 1 IPE pharmacokinetic study
# Source text: The safety population was defined as all randomized subjects who received at least one dose of study drug. The per-protocol population was defined as all safety population subjects who completed the 28-day treatment period without any major protocol deviations, and who provided blood samples for EPA analyses.
# Safety assessments consisted of adverse event (AE) monitoring, clinical laboratory measurements (chemistry, hematology, and urinalysis) 12-lead electrocardiographic measurements, vital signs (systolic and diastolic blood pressure, heart rate, respiratory rate, and oral body temperature) and physical examination findings.
# [3] = tested on: inflammation-associated end points (ICAM-1, Ox-LDL, Lp-PLA2, IL-6, hsCRP); assay: MARINE study, inflammation-associated end points (ITT); conditions: for ICAM-1 change from baseline / ICAM-1 end-of-treatment value / IL-6 change from baseline / IL-6 end-of-treatment value / Lp-PLA2 change from baseline / Lp-PLA2 end-of-treatment value / Ox-LDL change from baseline / Ox-LDL end-of-treatment value / hsCRP change from baseline / hsCRP end-of-treatment value: median
# Source text: A summary of baseline values, end-of-treatment values, and median placebo-adjusted percent change from baseline to study end of inflammation-associated end points in each of the three ITT sub-populations is shown in Table 5. […]
# [4] = tested on: inflammation-associated end points (ICAM-1, Ox-LDL, Lp-PLA2, IL-6, hsCRP); assay: ANCHOR study, inflammation-associated end points (ITT); conditions: for ICAM-1 median placebo-adjusted % change from baseline / IL-6 median placebo-adjusted % change from baseline / Lp-PLA2 median placebo-adjusted % change from baseline / Ox-LDL median placebo-adjusted % change from baseline / hsCRP median placebo-adjusted % change from baseline: week 12; for ICAM-1 change from baseline / ICAM-1 end-of-treatment value / IL-6 change from baseline / IL-6 end-of-treatment value / Lp-PLA2 change from baseline / Lp-PLA2 end-of-treatment value / Ox-LDL change from baseline / Ox-LDL end-of-treatment value / hsCRP change from baseline / hsCRP end-of-treatment value: week 12, on statin, median
# Procedure: A multi-center, placebo-controlled, randomized, double-blind, 12-week study was performed to evaluate the efficacy and safety of >96% E-EPA in patients with fasting triglyceride levels ≧200 mg/dl and <500 mg/dl despite statin therapy (the mean of two qualifying entry values needed to be ≧185 mg/dl and at least one of the values needs to be ≧200 mg/dl). The primary objective of the study was to determine the efficacy of >96% E-EPA 2 g daily and 4 g daily, compared to placebo, in lowering fasting TG levels in patients with high risk for cardiovascular disease and with fasting TG levels ≧200 mg/dL and <500 mg/dL, despite treatment to LDL-C goal on statin therapy.
# The population for this study was men and women >18 years of age with a body mass index ≦45 kg/m^2 with fasting TG levels greater than or equal to 200 mg/dl and less than 500 mg/dl and on a stable does of statin therapy (with or without ezetimibe). The statin must have been atorvostatin, rosuvastatin or simvastatin. The dose of statin must have been stable for ≧4 weeks prior to the LDL-C/TG baseline qualifying measurement for randomization. The statin dose was optimal such that the patients are at their LDL-C goal at the LDL-C/TG baseline qualifying measurements. The same statin at the same dose was continued until the study ended.
# Approximately 648 patients were randomized at approximately 80 centers in the U.S. The study was a 18- to 20-week, Phase 3, multi-center study consisting of 2 study periods: (1) A 6- to 8-week screening period that included a diet and lifestyle stabilization, a non-statin lipid-altering treatment washout, and an LDL-C and TG qualifying period and (2) A 12-week, double-blind, randomized, placebo-controlled treatment period.
# After confirmation of qualifying fasting LDL-C and TG values, eligible patients entered a 12-week, randomized, double-blind treatment period. At Visit 4 (Week 0), patients were randomly assigned to 1 of the following treatment groups: • >96% E-EPA 2 g daily, • >96% E-EPA 4 g daily, or • Placebo.
# >96% E-EPA was provided in 1 g liquid-filled, oblong, gelatin capsules. The matching placebo capsule was filled with light liquid paraffin and contains 0 g of >96% E-EPA. >96% E-EPA capsules were to be taken with food (i.e. with or at the end of a meal).
# The primary efficacy variable for the double-blind treatment period was percent change in TG from baseline to Week 12 endpoint. The secondary efficacy variables for the double-blind treatment period included the following: • Percent changes in total cholesterol (TC), high-density lipoprotein cholesterol (HDL-C), LDL-C, calculated non-HDL-C, and very low-density lipoprotein cholesterol (VLDL-C) from baseline to Week 12 endpoint; • Percent change in very low-density lipoprotein TG from baseline to Week 12; • Percent changes in apolipoprotein A-I (apo A-I), apolipoprotein B (apo B), and apo A-I/apo B ratio from baseline to Week 12; • Percent changes in lipoprotein(a) from baseline to Week 12; • Percent changes in LDL particle number and size, measured by nuclear magnetic resonance, from baseline to Week 12; • Percent change in remnant-like particle cholesterol from baseline to Week 12; • Percent change in oxidized LDL from baseline to Week 12; • Changes in FPG and HbA1c from baseline to Week 12; • Change in insulin resistance, as assessed by the homeostasis model index insulin resistance, from baseline to Week 12; • Percent change in lipoprotein associated phospholipase A2 (Lp-PLA2) from baseline to Week 12; • Change in intracellular adhesion molecule-1 from baseline to Week 12; • Change in interleukin-2 from baseline to Week 12; • Change in plasminogen activator inhibitor-1 from baseline to Week 12. […]
structure (smiles),measurement,setting,value
"CC/C=C\C/C=C\C/C=C\C/C=C\C/C=C\CCCC(=O)OCC [IPE, ethyl eicosapentaenoate]",dose linearity of exposure (dose-normalized AUC and maximum concentration),"[1]; IPE 2 g/day vs 4 g/day (Group 1 vs Group 2), total plasma, total RBCs, unesterified EPA",Dose linearity was observed; also recorded: dose-proportional
same,effect of gender on exposure parameters,[1]; in vivo,no consistent gender effect was observed
same,comparison of exposure between QD and BID regimens,"[1]; same daily dose 2 g, Group 1 vs Group 3",similarity between QD and BID regimens
same,comparison of exposure between 500-mg and 1000-mg formulations,"[1]; same daily dose 2 g, Group 1 vs Group 4",comparable exposures at comparable doses
same,subjects reporting at least one adverse event,"[2]; Group 1, IPE 2 g daily, 1000-mg capsules BID",25.0%
same,subjects reporting at least one adverse event,"[2]; Group 2, IPE 4 g daily, 1000-mg capsules BID",33.3%
same,subjects reporting at least one adverse event,"[2]; Group 3, IPE 2 g daily, 1000-mg capsules QD",25.0%
same,subjects reporting at least one adverse event,"[2]; Group 4, IPE 2 g daily, 500-mg capsules BID",33.3%
same,"changes in laboratory, electrocardiographic, or physical examination findings",[2]; all groups,no clinically meaningful changes
same,intensity of adverse events,[2]; all groups,mild or moderate in intensity
same,subjects reporting at least one adverse event,"[2]; all groups, safety population n = 48",29.2%
same,ICAM-1 median placebo-adjusted % change from baseline,[3]; AMR101 2 g/day vs placebo,−2.3%
same,IL-6 median placebo-adjusted % change from baseline,[3]; AMR101 2 g/day vs placebo,4.7%
same,Lp-PLA2 median placebo-adjusted % change from baseline,[3]; AMR101 2 g/day vs placebo,−5.1%
same,Ox-LDL median placebo-adjusted % change from baseline,[3]; AMR101 2 g/day vs placebo,−3.0%
same,hsCRP median placebo-adjusted % change from baseline,[3]; AMR101 2 g/day vs placebo,−10.1%
same,ICAM-1 change from baseline,[3]; AMR101 2 g/day,−0.4%
same,ICAM-1 end-of-treatment value,[3]; AMR101 2 g/day,257.5 ng/mL
same,IL-6 change from baseline,[3]; AMR101 2 g/day,3.4%
same,IL-6 end-of-treatment value,[3]; AMR101 2 g/day,3.0 pg/mL
same,Lp-PLA2 change from baseline,[3]; AMR101 2 g/day,−5.1%
same,Lp-PLA2 end-of-treatment value,[3]; AMR101 2 g/day,220.5 ng/mL
same,Ox-LDL change from baseline,[3]; AMR101 2 g/day,0.4%
same,Ox-LDL end-of-treatment value,[3]; AMR101 2 g/day,75.2 U/L
same,hsCRP change from baseline,[3]; AMR101 2 g/day,25.1%
same,hsCRP end-of-treatment value,[3]; AMR101 2 g/day,2.4 mg/L
same,ICAM-1 median placebo-adjusted % change from baseline,[3]; AMR101 4 g/day vs placebo,−2.5%
same,IL-6 median placebo-adjusted % change from baseline,[3]; AMR101 4 g/day vs placebo,11.0%
same,Lp-PLA2 median placebo-adjusted % change from baseline,[3]; AMR101 4 g/day vs placebo,−13.6%
same,Ox-LDL median placebo-adjusted % change from baseline,[3]; AMR101 4 g/day vs placebo,−6.4%
same,hsCRP median placebo-adjusted % change from baseline,[3]; AMR101 4 g/day vs placebo,−36.0%
same,ICAM-1 change from baseline,[3]; AMR101 4 g/day,−0.9%
same,ICAM-1 end-of-treatment value,[3]; AMR101 4 g/day,253.0 ng/mL
same,IL-6 change from baseline,[3]; AMR101 4 g/day,0.3%
same,IL-6 end-of-treatment value,[3]; AMR101 4 g/day,2.4 pg/mL
same,Lp-PLA2 change from baseline,[3]; AMR101 4 g/day,−17.1%
same,Lp-PLA2 end-of-treatment value,[3]; AMR101 4 g/day,201.0 ng/mL
same,Ox-LDL change from baseline,[3]; AMR101 4 g/day,−3.0%
same,Ox-LDL end-of-treatment value,[3]; AMR101 4 g/day,74.8 U/L
same,hsCRP change from baseline,[3]; AMR101 4 g/day,−2.5%
same,hsCRP end-of-treatment value,[3]; AMR101 4 g/day,2.2 mg/L
same,ICAM-1 median placebo-adjusted % change from baseline,[4]; AMR101 2 g/day vs placebo,−2.2%
same,IL-6 median placebo-adjusted % change from baseline,[4]; AMR101 2 g/day vs placebo,7.0%
same,Lp-PLA2 median placebo-adjusted % change from baseline,[4]; AMR101 2 g/day vs placebo,−8.0%
same,Ox-LDL median placebo-adjusted % change from baseline,[4]; AMR101 2 g/day vs placebo,−5.8%
same,hsCRP median placebo-adjusted % change from baseline,[4]; AMR101 2 g/day vs placebo,−6.8%
same,ICAM-1 change from baseline,[4]; AMR101 2 g/day,0.5%
same,ICAM-1 end-of-treatment value,[4]; AMR101 2 g/day,268.5 ng/mL
same,IL-6 change from baseline,[4]; AMR101 2 g/day,6.9%
same,IL-6 end-of-treatment value,[4]; AMR101 2 g/day,2.7 pg/mL
same,Lp-PLA2 change from baseline,[4]; AMR101 2 g/day,−1.8%
same,Lp-PLA2 end-of-treatment value,[4]; AMR101 2 g/day,183.5 ng/mL
same,Ox-LDL change from baseline,[4]; AMR101 2 g/day,2.6%
same,Ox-LDL end-of-treatment value,[4]; AMR101 2 g/day,55.8 U/L
same,hsCRP change from baseline,[4]; AMR101 2 g/day,10.3%
same,hsCRP end-of-treatment value,[4]; AMR101 2 g/day,2.5 mg/L
same,ICAM-1 median placebo-adjusted % change from baseline,[4]; AMR101 4 g/day vs placebo,−2.4%
same,IL-6 median placebo-adjusted % change from baseline,[4]; AMR101 4 g/day vs placebo,−1.0%
same,Lp-PLA2 median placebo-adjusted % change from baseline,[4]; AMR101 4 g/day vs placebo,−19.0%
same,Ox-LDL median placebo-adjusted % change from baseline,[4]; AMR101 4 g/day vs placebo,−13.3%
same,hsCRP median placebo-adjusted % change from baseline,[4]; AMR101 4 g/day vs placebo,−22.0%
same,ICAM-1 change from baseline,[4]; AMR101 4 g/day,0.8%
same,ICAM-1 end-of-treatment value,[4]; AMR101 4 g/day,270.0 ng/mL
same,IL-6 change from baseline,[4]; AMR101 4 g/day,3.1%
same,IL-6 end-of-treatment value,[4]; AMR101 4 g/day,2.6 pg/mL
same,Lp-PLA2 change from baseline,[4]; AMR101 4 g/day,−12.8%
same,Lp-PLA2 end-of-treatment value,[4]; AMR101 4 g/day,160.0 ng/mL
same,Ox-LDL change from baseline,[4]; AMR101 4 g/day,−4.8%
same,Ox-LDL end-of-treatment value,[4]; AMR101 4 g/day,51.4 U/L
same,hsCRP change from baseline,[4]; AMR101 4 g/day,−2.4%
same,hsCRP end-of-treatment value,[4]; AMR101 4 g/day,2.0 mg/L
